# How the values were obtained:
# [1] = target: Serine/threonine-protein kinase PLK2 (Homo sapiens, UniProt Q9NYY3); assay: Inhibition of PLK2 (unknown origin) at 1 uM relative to control
# [2] = target: Voltage-gated inwardly rectifying potassium channel KCNH2 (Homo sapiens, UniProt Q12809); assay: Inhibition of human ERG
# [3] = target: T1, Mitogen-activated protein kinase kinase kinase 19 (Homo sapiens, UniProt Q56UN5); assay: Inhibition of YSK4 (unknown origin)
# T1 sequence (Q56UN5 whole entry): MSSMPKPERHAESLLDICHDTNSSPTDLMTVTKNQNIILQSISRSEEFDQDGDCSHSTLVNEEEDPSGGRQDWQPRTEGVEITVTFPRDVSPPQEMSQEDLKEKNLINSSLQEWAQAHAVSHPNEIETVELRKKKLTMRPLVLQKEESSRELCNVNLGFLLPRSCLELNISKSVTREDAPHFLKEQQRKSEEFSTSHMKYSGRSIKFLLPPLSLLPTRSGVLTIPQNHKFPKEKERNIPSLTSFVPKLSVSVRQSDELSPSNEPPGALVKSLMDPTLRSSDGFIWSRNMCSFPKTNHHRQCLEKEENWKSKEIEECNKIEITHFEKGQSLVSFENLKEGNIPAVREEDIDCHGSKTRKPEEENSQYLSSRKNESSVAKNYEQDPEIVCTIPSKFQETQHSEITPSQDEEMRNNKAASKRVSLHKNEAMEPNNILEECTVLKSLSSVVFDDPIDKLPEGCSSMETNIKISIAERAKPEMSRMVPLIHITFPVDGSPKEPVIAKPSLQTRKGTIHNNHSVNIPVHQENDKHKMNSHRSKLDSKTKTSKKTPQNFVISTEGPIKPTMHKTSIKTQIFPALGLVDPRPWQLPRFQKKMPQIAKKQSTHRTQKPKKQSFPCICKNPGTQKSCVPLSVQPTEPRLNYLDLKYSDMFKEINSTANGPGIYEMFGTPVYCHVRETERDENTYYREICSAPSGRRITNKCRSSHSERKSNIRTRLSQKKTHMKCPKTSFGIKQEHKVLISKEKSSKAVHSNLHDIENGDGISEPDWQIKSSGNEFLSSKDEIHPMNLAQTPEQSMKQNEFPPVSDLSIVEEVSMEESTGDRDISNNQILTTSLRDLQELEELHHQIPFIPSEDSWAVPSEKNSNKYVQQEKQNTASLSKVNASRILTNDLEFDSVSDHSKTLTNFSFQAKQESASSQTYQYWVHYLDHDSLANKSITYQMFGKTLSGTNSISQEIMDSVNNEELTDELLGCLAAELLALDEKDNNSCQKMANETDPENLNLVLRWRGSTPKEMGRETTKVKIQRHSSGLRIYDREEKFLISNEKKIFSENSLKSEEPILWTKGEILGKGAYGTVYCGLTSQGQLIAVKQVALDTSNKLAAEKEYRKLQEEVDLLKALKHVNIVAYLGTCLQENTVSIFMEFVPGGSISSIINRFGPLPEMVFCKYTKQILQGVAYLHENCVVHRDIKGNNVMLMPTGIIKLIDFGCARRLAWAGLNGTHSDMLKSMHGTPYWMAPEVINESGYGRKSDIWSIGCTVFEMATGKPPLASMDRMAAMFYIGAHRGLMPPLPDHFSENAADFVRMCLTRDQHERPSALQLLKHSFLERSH
# A-427 = assay: Antiproliferative activity against human A-427 cells assessed as reduction in cell viability after 3 days by CellTiter-Glo assay; format: functional, cell-based; conditions: A-427, 72 h
# [4] = tested on: Epidermal growth factor receptor (Homo sapiens), P00533 [UNDEFINED MUTATION]; assay: Inhibition of EGFR d747-749/A750P mutant (unknown origin) at 1 uM relative to control
# Epidermal growth factor receptor (Homo sapiens), P00533 [UNDEFINED MUTATION], sequence (P00533 whole entry, looked up, stated change not applied): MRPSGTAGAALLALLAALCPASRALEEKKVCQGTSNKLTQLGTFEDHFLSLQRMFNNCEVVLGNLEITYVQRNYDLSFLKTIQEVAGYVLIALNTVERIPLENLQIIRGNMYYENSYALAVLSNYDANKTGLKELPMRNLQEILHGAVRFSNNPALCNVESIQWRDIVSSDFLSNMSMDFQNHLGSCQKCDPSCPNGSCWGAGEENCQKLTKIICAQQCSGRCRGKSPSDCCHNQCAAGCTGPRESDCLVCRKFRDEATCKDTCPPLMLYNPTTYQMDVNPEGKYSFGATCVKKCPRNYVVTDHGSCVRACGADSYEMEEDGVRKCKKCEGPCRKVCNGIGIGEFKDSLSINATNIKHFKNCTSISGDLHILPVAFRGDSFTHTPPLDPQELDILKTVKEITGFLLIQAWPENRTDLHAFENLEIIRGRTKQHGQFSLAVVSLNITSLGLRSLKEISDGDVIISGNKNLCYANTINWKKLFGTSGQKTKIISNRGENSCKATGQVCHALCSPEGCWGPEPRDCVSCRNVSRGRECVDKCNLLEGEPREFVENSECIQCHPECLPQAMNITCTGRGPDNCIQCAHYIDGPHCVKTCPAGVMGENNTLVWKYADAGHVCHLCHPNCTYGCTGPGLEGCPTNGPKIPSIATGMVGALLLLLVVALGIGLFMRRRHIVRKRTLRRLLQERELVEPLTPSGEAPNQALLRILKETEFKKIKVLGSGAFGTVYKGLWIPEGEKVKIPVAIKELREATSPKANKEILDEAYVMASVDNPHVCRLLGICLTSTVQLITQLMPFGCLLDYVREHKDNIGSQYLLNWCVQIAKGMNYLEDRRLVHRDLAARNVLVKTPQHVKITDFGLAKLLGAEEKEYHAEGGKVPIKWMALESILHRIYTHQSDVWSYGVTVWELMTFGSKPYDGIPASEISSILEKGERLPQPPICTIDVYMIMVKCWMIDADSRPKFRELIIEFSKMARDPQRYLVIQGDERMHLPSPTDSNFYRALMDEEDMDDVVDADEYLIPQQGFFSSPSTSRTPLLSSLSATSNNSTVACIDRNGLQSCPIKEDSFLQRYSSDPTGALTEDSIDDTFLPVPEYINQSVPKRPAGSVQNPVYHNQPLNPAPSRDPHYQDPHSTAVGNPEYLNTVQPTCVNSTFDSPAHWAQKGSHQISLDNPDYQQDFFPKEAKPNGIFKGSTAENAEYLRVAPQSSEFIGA
# [5] = target: Serine/threonine-protein kinase PLK3 (Homo sapiens, UniProt Q9H4B4); assay: Inhibition of PLK3 (unknown origin)
# Serine/threonine-protein kinase PLK3, sequence (Q9H4B4 whole entry): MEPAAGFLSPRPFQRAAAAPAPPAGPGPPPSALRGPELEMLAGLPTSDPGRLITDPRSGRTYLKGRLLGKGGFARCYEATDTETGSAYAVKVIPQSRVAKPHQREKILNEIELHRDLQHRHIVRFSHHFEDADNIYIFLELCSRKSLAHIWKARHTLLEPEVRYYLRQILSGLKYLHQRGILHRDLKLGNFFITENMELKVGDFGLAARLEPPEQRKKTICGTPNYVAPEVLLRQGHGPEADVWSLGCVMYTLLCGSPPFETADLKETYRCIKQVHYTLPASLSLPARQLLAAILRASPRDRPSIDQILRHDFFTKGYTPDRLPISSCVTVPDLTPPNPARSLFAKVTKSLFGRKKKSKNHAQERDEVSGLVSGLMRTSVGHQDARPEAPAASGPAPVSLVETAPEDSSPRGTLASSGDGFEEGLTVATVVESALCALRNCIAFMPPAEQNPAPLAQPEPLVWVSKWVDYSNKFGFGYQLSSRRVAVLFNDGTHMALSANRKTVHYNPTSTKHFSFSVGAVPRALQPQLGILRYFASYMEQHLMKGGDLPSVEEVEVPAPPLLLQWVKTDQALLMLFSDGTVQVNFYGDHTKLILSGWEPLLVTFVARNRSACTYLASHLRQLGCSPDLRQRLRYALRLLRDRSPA
# [6] = Permeability of the compound across basolateral to apical side in human Caco-2 cells; format: ADME, cell-based; conditions: read-out: permeability
# [7] = Thermodynamic solubility of compound; format: physicochemical; conditions: read-out: Therm_solubility
# [8] = Permeability of the compound across apical to basolateral side in human Caco-2 cells; format: ADME, cell-based; conditions: read-out: permeability
# [9] = AUC in Beagle dog at 3 mg/kg, iv measured upto 24 hrs by LC-MS/MS analysis; format: ADME, organism-based, Canis lupus familiaris; set-up: route intravenous, dose 3 mg/kg, time <=24; conditions: in vivo
# [10] = Cmax in Beagle dog at 10 mg/kg, po measured upto 24 hrs by LC-MS/MS analysis; format: ADME, organism-based, Canis lupus familiaris; set-up: route oral, dose 10 mg/kg, time <=24; conditions: in vivo
# [11] = AUC(0 to 24 hrs) in mouse at 60 mg/kg, po; format: ADME, organism-based; set-up: time < 24 hr, route oral, dose 60 mg/kg; conditions: in vivo
# [12] = Half life in Beagle dog at 10 mg/kg, po measured upto 24 hrs by LC-MS/MS analysis; format: ADME, organism-based, Canis lupus familiaris; conditions: in vivo
# [13] = target: Tyrosine-protein kinase Lck (Homo sapiens) (UniProt P06239); assay: Inhibition of LCK (unknown origin) at 1 uM relative to control
# Tyrosine-protein kinase Lck (Homo sapiens), sequence (P06239 2-509 limits assumed): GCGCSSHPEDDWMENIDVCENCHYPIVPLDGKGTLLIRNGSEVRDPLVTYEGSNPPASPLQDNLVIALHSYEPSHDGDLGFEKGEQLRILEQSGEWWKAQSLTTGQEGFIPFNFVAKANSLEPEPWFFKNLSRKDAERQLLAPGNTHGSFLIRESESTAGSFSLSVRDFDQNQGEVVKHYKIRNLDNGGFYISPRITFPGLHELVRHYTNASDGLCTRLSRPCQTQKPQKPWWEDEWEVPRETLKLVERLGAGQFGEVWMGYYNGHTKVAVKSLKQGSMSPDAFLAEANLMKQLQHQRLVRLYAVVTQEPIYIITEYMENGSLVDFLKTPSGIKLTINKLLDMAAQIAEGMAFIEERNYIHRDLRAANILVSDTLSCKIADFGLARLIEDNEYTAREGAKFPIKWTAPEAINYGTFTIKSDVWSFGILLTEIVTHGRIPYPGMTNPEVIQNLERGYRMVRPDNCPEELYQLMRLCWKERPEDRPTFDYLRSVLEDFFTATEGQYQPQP
# [14] = Octanol/buffer distribution coefficient, logD of the compound at pH 7.4; format: physicochemical
# [15] = AUC in Beagle dog at 10 mg/kg, po measured upto 24 hrs by LC-MS/MS analysis; format: ADME, organism-based, Canis lupus familiaris; set-up: route oral, dose 10 mg/kg, time <=24; conditions: in vivo
# [16] = Clearance in Beagle dog at 3 mg/kg, iv measured upto 24 hrs by LC-MS/MS analysis; format: ADME, organism-based, Canis lupus familiaris; conditions: in vivo
# [17] = Oral bioavailability in Beagle dog at 10 mg/kg measured upto 24 hrs by LC-MS/MS analysis; format: ADME, organism-based, Canis lupus familiaris; conditions: in vivo
# [18] = Intrinsic clearance in mouse microsomes; format: ADME, Microsome
# [19] = target: T2, Mitogen-activated protein kinase kinase kinase 19 (Homo sapiens) (UniProt Q56UN5); assay: Inhibition of YSK4 (unknown origin) at 1 uM relative to control
# T2 sequence (whole entry): T1 sequence (Q56UN5 whole entry)
# Serine/threonine-protein kinase PLK2, sequence (Q9NYY3 whole entry, looked up): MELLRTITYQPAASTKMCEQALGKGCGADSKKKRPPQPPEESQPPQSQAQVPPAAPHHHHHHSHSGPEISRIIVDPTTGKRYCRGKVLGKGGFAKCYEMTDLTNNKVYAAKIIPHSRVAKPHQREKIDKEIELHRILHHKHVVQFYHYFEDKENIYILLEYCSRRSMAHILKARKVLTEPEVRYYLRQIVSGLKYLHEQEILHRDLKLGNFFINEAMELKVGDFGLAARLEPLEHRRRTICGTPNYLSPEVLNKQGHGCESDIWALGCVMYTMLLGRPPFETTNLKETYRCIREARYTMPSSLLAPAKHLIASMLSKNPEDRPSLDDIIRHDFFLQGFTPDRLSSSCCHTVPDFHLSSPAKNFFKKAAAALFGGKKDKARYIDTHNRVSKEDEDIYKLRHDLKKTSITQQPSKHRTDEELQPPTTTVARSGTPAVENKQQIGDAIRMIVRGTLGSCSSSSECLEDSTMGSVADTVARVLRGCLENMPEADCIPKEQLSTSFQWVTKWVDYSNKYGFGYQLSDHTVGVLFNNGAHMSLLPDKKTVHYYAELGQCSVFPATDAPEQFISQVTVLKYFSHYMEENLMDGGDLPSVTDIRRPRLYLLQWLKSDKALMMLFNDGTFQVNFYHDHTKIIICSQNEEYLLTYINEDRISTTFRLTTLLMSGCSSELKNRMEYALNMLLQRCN
# Voltage-gated inwardly rectifying potassium channel KCNH2, sequence (Q12809 whole entry): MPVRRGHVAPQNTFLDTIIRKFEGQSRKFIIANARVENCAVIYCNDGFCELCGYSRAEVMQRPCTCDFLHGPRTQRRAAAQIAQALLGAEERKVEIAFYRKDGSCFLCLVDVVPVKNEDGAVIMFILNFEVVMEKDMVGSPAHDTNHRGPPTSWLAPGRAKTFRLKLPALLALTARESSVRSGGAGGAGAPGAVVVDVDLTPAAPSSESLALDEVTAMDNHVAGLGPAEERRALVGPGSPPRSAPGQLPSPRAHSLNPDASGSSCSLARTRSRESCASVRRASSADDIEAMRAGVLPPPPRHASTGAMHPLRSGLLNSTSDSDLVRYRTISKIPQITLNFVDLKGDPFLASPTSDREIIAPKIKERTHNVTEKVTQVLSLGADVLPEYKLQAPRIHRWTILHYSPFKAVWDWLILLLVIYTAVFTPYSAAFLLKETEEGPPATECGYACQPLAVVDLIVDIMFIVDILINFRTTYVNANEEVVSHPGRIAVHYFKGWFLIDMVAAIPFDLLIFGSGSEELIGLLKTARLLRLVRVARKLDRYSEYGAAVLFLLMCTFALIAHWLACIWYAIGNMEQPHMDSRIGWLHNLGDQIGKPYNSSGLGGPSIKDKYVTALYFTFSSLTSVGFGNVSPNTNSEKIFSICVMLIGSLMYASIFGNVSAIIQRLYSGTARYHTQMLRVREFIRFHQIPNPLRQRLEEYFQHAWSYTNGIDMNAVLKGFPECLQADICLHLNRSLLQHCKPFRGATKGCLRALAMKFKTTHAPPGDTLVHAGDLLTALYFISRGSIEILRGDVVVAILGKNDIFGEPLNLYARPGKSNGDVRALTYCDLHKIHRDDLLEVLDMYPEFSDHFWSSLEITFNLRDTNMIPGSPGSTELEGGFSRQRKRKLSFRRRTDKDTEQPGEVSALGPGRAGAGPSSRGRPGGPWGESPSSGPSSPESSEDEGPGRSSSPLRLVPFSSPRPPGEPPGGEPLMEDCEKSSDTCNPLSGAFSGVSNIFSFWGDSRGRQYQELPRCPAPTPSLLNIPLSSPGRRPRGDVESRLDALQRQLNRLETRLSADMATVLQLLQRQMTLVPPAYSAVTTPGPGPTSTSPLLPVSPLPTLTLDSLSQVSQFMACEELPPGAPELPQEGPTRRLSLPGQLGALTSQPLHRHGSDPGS
smiles,measurement,setting,value
C=CCn1c(=O)c2cnc(Nc3ccc(N4CCN(C)CC4)cc3)nc2n1-c1ccc2c(n1)C(O)(CC)CC2 (racemic),inhibition,[1],> 90%
same,IC50,[2],> 30000 nM
same,IC50,[3],59 nM
same,IC50,A-427,75 nM
same,inhibition,[4],> 90%
same,IC50,[5],70 nM
same,Papp B→A,[6],25.5 ×10⁻⁶ cm/s
same,solubility thermodynamic,[7],2130 µM
same,Papp A→B,[8],3.6 ×10⁻⁶ cm/s
same,AUC at 24 h,[9],2.1 µM·h
same,Cmax,[10],2100 nM
same,AUC(0-t) at 24 h,[11],32 µM·h
same,half-life,[12],2.3 h
same,inhibition,[13],75%
same,logD,[14],2.4
same,AUC at 24 h,[15],9.7 µM·h
same,clearance,[16],46 mL/min/kg
same,bioavailability,[17],142%
same,CLint scaled,[18],74 mL/min/kg
same,inhibition,[19],> 90%

# From ChEMBL document CHEMBL4842364 (J Med Chem, 2021)
